Results published in the kinase profiling compilation of Christmann-Franck et al. (2016).

Assays:
Assay in all cases: radiometric filter-binding kinase assay, Kinase HotSpot
Details in all cases: compound 0.5 µM; ATP 10 µM
[1] = target: RPS6KA1 KD1 KD2 (human) (UniProt Q15418)
[2] = target: PLK2 (human) (UniProt Q9NYY3)
[3] = target: AURKB (human) (UniProt Q96GD4)
[4] = target: PDGFRB (human) (UniProt P09619)
[5] = target: PDPK1 (human) (UniProt O15530)
[6] = target: DAPK2 (human) (UniProt Q9UIK4)
[7] = target: TBK1 (human) (UniProt Q9UHD2)
TBK1 (human), sequence (Q9UHD2 whole entry, looked up): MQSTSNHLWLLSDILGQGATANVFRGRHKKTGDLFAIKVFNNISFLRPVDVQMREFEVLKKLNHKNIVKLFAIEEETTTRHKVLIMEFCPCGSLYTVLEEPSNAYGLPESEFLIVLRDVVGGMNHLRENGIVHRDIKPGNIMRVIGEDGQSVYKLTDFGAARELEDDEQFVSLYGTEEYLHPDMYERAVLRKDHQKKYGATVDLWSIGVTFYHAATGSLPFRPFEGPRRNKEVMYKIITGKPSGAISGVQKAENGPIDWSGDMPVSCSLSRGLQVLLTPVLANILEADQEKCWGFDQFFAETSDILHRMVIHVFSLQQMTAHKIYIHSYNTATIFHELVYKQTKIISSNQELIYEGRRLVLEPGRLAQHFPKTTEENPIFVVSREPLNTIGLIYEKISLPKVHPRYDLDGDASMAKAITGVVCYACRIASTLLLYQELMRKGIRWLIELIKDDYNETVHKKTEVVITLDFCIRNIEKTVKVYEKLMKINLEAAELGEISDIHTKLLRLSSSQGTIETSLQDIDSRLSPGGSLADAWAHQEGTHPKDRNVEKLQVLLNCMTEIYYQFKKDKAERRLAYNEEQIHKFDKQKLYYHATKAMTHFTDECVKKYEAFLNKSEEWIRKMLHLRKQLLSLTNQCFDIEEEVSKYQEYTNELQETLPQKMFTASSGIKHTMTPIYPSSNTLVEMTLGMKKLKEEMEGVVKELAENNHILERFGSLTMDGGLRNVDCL

[8] = target: ERBB2 (human) (UniProt P04626)
[9] = target: MAP3K8 (human) (UniProt P41279)
[10] = target: PRKCE (human) (UniProt Q02156)
PRKCE (human), sequence (Q02156 whole entry, looked up): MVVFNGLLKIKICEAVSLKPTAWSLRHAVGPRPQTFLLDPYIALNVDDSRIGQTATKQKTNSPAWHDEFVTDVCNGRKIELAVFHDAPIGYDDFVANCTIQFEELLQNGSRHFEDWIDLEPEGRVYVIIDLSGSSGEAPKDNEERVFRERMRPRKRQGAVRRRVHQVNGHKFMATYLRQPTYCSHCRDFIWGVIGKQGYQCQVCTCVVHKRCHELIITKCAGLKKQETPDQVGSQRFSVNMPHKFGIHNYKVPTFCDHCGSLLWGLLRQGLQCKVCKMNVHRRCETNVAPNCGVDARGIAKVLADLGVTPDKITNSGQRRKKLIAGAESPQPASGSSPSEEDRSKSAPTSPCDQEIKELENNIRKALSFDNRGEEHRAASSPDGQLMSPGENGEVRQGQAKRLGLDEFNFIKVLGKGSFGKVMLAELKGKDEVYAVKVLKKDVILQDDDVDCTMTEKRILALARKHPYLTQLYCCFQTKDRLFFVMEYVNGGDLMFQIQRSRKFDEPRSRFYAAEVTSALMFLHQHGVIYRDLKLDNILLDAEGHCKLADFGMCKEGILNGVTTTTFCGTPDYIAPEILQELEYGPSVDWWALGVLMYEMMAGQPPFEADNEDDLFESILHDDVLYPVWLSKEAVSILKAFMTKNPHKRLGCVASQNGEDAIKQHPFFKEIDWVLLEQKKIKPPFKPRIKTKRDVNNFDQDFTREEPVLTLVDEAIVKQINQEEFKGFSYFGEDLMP

[11] = target: MARK1 (human) (UniProt Q9P0L2)
MARK1 (human), sequence (Q9P0L2 whole entry, looked up): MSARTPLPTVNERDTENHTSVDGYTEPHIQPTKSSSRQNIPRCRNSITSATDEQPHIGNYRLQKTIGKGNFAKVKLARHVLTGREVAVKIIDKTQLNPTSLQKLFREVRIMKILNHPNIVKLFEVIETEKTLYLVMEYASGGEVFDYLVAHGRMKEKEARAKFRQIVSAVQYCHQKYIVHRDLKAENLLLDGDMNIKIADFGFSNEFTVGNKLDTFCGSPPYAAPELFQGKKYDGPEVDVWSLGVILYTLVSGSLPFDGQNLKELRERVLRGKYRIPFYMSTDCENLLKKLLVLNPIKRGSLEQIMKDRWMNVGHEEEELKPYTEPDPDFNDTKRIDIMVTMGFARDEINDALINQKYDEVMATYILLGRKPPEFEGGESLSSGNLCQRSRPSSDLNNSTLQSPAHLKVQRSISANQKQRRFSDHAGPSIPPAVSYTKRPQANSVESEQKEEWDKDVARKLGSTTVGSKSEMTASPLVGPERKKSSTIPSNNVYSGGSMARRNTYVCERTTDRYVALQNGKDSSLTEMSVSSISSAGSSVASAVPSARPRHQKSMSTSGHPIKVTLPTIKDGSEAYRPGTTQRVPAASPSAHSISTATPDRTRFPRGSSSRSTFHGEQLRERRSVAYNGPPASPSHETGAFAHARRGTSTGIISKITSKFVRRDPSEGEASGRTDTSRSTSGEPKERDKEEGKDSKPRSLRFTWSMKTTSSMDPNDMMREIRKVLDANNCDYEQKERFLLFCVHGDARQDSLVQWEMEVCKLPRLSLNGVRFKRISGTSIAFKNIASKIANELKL

[12] = target: CLK2 (human) (UniProt P49760)
[13] = target: WNK2 (human) (UniProt Q9Y3S1)
[14] = target: MARK2 (human) (UniProt Q7KZI7)
[15] = target: MAPK1 (human) (UniProt P28482)
MAPK1 (human), sequence (P28482 whole entry, looked up): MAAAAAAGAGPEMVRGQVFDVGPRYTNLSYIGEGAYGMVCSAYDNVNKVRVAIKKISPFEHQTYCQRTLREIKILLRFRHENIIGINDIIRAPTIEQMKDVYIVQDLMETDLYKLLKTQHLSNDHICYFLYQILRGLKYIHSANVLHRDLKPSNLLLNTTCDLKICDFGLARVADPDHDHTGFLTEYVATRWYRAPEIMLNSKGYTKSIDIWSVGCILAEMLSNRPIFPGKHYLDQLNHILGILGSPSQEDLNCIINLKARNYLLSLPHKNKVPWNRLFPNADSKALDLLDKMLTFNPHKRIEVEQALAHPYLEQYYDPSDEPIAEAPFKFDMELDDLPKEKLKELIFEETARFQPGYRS

[16] = target: PAK3 (human) (UniProt O75914)
[17] = target: FGFR1 (human) (UniProt P11362)
[18] = target: PIM2 (human) (UniProt Q9P1W9)
[19] = target: MAPK12 (human) (UniProt P53778)
[20] = target: MAPK14 (human) (UniProt Q16539)
MAPK14 (human), sequence (Q16539 whole entry, looked up): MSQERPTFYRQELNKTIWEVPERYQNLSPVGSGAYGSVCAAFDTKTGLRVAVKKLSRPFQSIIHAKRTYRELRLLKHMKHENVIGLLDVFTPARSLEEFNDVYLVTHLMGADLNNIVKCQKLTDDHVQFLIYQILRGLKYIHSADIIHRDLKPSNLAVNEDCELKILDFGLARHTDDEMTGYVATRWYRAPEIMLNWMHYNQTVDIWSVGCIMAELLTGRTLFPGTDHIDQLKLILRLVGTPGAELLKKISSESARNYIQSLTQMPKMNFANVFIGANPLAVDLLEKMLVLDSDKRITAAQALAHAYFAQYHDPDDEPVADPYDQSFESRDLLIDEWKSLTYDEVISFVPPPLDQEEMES

[21] = target: PRKCB1 (human) (UniProt P05771)
[22] = target: GRK6 (human) (UniProt P43250)
[23] = target: PRKD3 (human) (UniProt O94806)
[24] = target: PLK1 (human) (UniProt P53350)
[25] = target: PRKACA (human) (UniProt P17612)
[26] = target: ULK2 (human) (UniProt Q8IYT8)
[27] = target: RPS6KB1 (human) (UniProt P23443)
[28] = target: MUSK (human) (UniProt O15146)
[29] = target: EPHB1 (human) (UniProt P54762)
[30] = target: FLT1 (human) (UniProt P17948)
[31] = target: TYRO3 (human) (UniProt Q06418)
[32] = target: INSRR (human) (UniProt P14616)
[33] = target: FYN (human) (UniProt P06241)
FYN (human), sequence (P06241 whole entry, looked up): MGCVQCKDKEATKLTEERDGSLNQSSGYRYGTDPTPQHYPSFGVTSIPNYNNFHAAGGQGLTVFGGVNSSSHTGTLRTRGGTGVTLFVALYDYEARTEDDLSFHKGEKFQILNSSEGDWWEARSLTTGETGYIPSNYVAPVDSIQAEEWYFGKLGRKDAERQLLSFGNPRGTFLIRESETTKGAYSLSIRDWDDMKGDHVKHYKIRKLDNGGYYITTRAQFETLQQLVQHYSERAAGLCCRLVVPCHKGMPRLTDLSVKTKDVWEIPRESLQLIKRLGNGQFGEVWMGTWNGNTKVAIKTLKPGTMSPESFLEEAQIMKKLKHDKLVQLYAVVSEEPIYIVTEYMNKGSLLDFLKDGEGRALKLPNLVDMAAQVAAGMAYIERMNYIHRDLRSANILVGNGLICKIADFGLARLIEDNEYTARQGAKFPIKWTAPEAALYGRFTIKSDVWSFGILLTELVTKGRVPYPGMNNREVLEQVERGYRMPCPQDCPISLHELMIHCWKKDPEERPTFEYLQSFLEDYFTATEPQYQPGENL

[34] = target: FGFR2 (human) (UniProt P21802)
[35] = target: MAPK13 (human) (UniProt O15264)
MAPK13 (human), sequence (O15264 whole entry, looked up): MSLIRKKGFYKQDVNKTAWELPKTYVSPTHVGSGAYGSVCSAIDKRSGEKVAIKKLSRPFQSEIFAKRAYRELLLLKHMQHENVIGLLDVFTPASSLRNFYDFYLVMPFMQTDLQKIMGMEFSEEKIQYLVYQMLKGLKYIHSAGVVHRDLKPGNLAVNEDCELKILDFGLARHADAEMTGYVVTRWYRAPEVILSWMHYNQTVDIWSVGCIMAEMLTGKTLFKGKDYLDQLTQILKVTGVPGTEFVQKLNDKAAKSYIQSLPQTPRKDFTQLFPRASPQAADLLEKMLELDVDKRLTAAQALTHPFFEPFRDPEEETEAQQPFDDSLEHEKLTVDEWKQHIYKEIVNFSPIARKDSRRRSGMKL

[36] = target: TSSK2 (human) (UniProt Q96PF2)
[37] = target: AURKA (human) (UniProt O14965)
[38] = target: INSR (human) (UniProt P06213)
[39] = target: MAPKAPK5 (human) (UniProt Q8IW41)
[40] = target: PHKG2 (human) (UniProt P15735)
[41] = target: JAK2 JH1 JH2 (human) (UniProt O60674)
JAK2 JH1 JH2 (human), sequence (O60674 whole entry, looked up): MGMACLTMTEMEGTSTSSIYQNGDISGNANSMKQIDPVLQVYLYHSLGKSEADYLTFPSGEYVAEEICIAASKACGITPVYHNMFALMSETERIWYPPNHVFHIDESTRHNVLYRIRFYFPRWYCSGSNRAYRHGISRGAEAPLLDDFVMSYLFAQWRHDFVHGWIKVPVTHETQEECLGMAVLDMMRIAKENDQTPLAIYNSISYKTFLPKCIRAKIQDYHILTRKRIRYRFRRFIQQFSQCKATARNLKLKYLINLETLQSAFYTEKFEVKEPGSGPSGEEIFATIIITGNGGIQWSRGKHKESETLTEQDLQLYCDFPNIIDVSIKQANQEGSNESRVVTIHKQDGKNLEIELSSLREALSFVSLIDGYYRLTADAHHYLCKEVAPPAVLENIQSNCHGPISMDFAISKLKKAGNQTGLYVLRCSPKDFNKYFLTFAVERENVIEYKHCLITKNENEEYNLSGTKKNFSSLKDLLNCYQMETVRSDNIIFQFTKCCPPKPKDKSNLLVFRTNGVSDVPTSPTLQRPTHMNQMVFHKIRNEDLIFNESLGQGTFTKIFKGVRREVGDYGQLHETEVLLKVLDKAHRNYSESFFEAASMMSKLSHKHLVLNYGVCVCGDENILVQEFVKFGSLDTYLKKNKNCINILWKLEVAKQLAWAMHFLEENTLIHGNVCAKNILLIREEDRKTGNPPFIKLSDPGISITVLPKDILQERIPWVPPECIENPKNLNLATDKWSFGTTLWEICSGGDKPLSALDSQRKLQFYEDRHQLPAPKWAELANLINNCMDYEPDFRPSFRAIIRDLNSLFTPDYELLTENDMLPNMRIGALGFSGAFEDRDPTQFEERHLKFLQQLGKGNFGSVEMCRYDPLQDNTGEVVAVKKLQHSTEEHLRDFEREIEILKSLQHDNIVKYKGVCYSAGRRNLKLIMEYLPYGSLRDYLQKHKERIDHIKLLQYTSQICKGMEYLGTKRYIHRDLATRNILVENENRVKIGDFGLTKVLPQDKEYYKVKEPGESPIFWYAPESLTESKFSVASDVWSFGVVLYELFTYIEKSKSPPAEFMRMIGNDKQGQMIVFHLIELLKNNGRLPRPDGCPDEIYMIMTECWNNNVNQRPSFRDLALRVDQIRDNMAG

[42] = target: GSK3A (human) (UniProt P49840)

## CCN(CC)CCNC(=O)c1c(C)[nH]c(/C=C2\C(=O)Nc3ccc(Cl)cc32)c1C
[1]
  residual activity: 13.1%
[2]
  residual activity: 91.2%
[3]
  residual activity: 31.9%
[4]
  residual activity: 9.28%
[5]
  residual activity: 101%
[6]
  residual activity: 86.7%
[7]
  residual activity: 16.3%
[8]
  residual activity: 102%
[9]
  residual activity: 113%
[10]
  residual activity: 102%
[11]
  residual activity: 18.1%
[12]
  residual activity: 15.8%
[13]
  residual activity: 101%
[14]
  residual activity: 9.74%
[15]
  residual activity: 97.1%
[16]
  residual activity: 93.8%
[17]
  residual activity: 20.3%
[18]
  residual activity: 101%
[19]
  residual activity: 96.6%
[20]
  residual activity: 103%
[21]
  residual activity: 98.1%
[22]
  residual activity: 46.3%
[23]
  residual activity: 8.04%
[24]
  residual activity: 105%
[25]
  residual activity: 90%
[26]
  residual activity: 43%
[27]
  residual activity: 41.7%
[28]
  residual activity: 63.5%
[29]
  residual activity: 60.8%
[30]
  residual activity: 34.4%
[31]
  residual activity: 23.2%
[32]
  residual activity: 4.33%
[33]
  residual activity: 28.4%
[34]
  residual activity: 29.3%
[35]
  residual activity: 104%
[36]
  residual activity: 66.9%
[37]
  residual activity: 80.3%
[38]
  residual activity: 30.1%
[39]
  residual activity: 91.6%
[40]
  residual activity: 16.6%
[41]
  residual activity: 54%
[42]
  residual activity: 88.3%

## O=C1NC(=O)C(c2cn(CCCn3ccnc3)c3ccccc23)=C1Nc1ccccc1
[1]
  residual activity: 7.54%
[2]
  residual activity: 101%
[3]
  residual activity: 95.4%
[4]
  residual activity: 76.5%
[5]
  residual activity: 80.3%
[6]
  residual activity: 104%
[7]
  residual activity: 48%
[8]
  residual activity: 93.6%
[9]
  residual activity: 100%
[10]
  residual activity: 12.8%
[11]
  residual activity: 93.6%
[12]
  residual activity: 14.7%
[13]
  residual activity: 99.8%
[14]
  residual activity: 97.1%
[15]
  residual activity: 94.8%
[16]
  residual activity: 100%
[17]
  residual activity: 78.5%
[18]
  residual activity: 102%
[19]
  residual activity: 102%
[20]
  residual activity: 88.3%
[21]
  residual activity: 9.78%
[22]
  residual activity: 98.4%
[23]
  residual activity: 80%
[24]
  residual activity: 99.5%
[25]
  residual activity: 94%
[26]
  residual activity: 91.7%
[27]
  residual activity: 42.7%
[28]
  residual activity: 51.6%
[29]
  residual activity: 102%
[30]
  residual activity: 85.7%
[31]
  residual activity: 99.6%
[32]
  residual activity: 101%
[33]
  residual activity: 102%
[34]
  residual activity: 103%
[35]
  residual activity: 122%
[36]
  residual activity: 97.9%
[37]
  residual activity: 78.8%
[38]
  residual activity: 84.4%
[39]
  residual activity: 96.4%
[40]
  residual activity: 107%
[41]
  residual activity: 84.3%
[42]
  residual activity: 10.6%
